The pIC50 is the negative decadic logarithm of the IC50, by convention in mol/L. Read a high pIC50 as a small IC50.

The structures appear in SMILES notation. pIC50: −log10 of the molar value. Calls of active or inactive are those of the source. The calls are words filed in the database; no cut-off is given here. A value given as a limit tells only on which side of the number the result lay.

In assay [1] the target is NAD-dependent protein deacylase sirtuin-5, mitochondrial (Homo sapiens, UniProt Q9NXA8). Put plainly: Inhibition of SIRT5 desuccinylation activity (unknown origin) using H3K9Su (4 to 15 residues) as substrate by HPLC analysis.
NAD-dependent protein deacylase sirtuin-5, mitochondrial, sequence (Q9NXA8 whole entry, the tested form may be a part): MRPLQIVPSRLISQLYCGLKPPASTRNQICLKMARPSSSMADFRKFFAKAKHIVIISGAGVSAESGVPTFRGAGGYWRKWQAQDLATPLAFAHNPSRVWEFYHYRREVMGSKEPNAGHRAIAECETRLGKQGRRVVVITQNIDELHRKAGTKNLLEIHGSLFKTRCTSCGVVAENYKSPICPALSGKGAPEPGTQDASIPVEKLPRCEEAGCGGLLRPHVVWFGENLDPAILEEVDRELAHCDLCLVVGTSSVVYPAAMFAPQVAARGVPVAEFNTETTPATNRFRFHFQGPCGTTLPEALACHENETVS
The target of assay [2] is T1, NAD-dependent protein deacetylase sirtuin-1 (Homo sapiens, UniProt Q96EB6).
T1 sequence (Q96EB6 whole entry): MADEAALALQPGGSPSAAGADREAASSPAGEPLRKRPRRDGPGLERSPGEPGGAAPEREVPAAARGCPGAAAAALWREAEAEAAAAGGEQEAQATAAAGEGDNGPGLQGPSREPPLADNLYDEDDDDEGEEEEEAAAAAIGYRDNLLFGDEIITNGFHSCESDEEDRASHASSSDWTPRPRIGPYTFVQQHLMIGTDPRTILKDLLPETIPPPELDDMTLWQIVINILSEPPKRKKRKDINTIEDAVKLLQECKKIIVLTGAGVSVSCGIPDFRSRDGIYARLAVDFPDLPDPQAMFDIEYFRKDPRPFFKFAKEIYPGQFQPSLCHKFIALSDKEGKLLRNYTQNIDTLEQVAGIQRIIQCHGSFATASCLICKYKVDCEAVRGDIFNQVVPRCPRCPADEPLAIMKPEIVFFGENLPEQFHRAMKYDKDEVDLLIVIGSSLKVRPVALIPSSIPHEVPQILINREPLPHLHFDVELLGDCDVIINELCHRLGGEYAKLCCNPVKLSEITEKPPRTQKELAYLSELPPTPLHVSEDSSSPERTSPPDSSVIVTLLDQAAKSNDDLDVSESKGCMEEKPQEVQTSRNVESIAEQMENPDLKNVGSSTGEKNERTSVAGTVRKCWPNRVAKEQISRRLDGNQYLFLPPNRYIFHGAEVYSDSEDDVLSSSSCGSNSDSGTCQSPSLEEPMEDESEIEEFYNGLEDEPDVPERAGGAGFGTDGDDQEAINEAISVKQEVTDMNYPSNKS
In words: Inhibition of SIRT1 deacetylation activity (unknown origin) using H3K9Ac (4 to 15 residues) as substrate by HPLC analysis.

In assay [3] the target is T2, NAD-dependent protein deacetylase sirtuin-2 (Homo sapiens, UniProt Q8IXJ6).
T2 sequence (Q8IXJ6 whole entry): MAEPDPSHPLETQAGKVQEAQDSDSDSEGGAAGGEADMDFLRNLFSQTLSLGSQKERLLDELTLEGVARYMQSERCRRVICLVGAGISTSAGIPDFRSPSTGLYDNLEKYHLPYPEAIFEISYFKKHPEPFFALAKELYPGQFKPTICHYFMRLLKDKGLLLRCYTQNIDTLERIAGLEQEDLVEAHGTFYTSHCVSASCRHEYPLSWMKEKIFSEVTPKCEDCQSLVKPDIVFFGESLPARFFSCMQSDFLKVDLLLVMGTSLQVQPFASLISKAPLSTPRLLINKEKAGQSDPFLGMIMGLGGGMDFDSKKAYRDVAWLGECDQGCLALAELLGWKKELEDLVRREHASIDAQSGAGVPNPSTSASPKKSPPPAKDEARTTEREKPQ
Put plainly: Inhibition of SIRT2 deacetylation activity (unknown origin) using H3K9Ac ( 4 to 15 residues) as substrate by HPLC analysis.

Assay [4] addresses T3, NAD-dependent protein deacetylase sirtuin-3, mitochondrial (Homo sapiens, UniProt Q9NTG7).
T3 sequence (Q9NTG7 whole entry): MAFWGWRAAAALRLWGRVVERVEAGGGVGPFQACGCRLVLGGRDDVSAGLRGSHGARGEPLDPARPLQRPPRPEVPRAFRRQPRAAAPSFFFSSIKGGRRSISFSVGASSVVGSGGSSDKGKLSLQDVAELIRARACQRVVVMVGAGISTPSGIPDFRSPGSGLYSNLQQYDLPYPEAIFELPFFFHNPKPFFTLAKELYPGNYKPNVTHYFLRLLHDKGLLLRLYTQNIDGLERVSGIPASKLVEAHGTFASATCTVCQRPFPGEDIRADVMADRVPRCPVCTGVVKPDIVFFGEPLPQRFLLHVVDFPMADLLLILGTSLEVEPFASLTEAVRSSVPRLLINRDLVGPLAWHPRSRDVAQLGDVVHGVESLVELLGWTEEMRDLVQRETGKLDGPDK
In words: Inhibition of SIRT3 deacetylation activity (unknown origin) using H3K9Ac (4 to 15 residues) as substrate by HPLC analysis.

The target of assay [5] is T2, NAD-dependent protein deacetylase sirtuin-2. Put plainly: Inhibition of SIRT2 deacetylation activity (unknown origin) using H4K8Ac (3 to 13 residues) as substrate by HPLC analysis.
For assay [6] the target is unchanged. In words: Inhibition of SIRT2 defatty-acylation activity (unknown origin) using H4K8-Myr (3 to 13 residues) as substrate by HPLC analysis.
Assay [7] shares this target. In words: Inhibition of SIRT2 debenzoylation activity (unknown origin) using benzoylated histone H4K8 peptide (3 to 13 residues ) as substrate by HPLC analysis.
For assay [8], the species on record is Homo sapiens. In words: Selectivity ratio of IC50 for inhibition of SIRT1 deacetylation activity (unknown origin) to IC50 for inhibition of SIRT2 deacetylation activity (unknown origin).
The species entered for assay [9] is Homo sapiens. In words: Selectivity ratio of IC50 for inhibition of SIRT3 deacetylation activity (unknown origin) to IC50 for inhibition of SIRT2 deacetylation activity (unknown origin).
The species named for assay [10] is Homo sapiens. Put plainly: Selectivity ratio of IC50 for inhibition of SIRT5 desuccinylation activity (unknown origin) to IC50 for inhibition of SIRT2 deacetylation activity (unknown origin).
Assay [11] deals with T4, NAD-dependent protein deacetylase sirtuin-2 (Homo sapiens) (UniProt Q8IXJ6).
T4 sequence (whole entry): T2 sequence (Q8IXJ6 whole entry)
In words: Inhibition of SIRT2 deacetylation activity (unknown origin) assessed as increase in substrate apparent Km at 2 uM using H4K8Ac (3 to 13 residues) as substrate.

In assay [12] the target is T4, NAD-dependent protein deacetylase sirtuin-2 (Homo sapiens). In words: Irreversible inhibition of SIRT2 deacetylation activity (unknown origin) up to 40 uM using H4K8Ac (3 to 13 residues) as substrate.

In the case of `O=C(On1nnc2ncccc21)c1c[nH]c2ccc(Br)cc12`, the results for the pIC50 in assay [1], in [2] and in assay [3] were less than 3.70, 4.39 and 4.11, respectively.
`Cc1cc(C)nc(SCC(=O)Nc2ncc(Cc3cccc4ccccc34)s2)n1`: the pIC50 in assay [1], in [2] and in [4] was less than 3.70 each time.
For the molecule `O=C(On1nnc2ccccc21)c1cc[nH]c1`, the pIC50 in assay [1] was less than 3.70; in assay [2], less than 3.70; in assay [3], 4.25; in assay [4], less than 3.70.
On to `Cc1ccc2[nH]cc(C(=O)On3nnc4ccccc43)c2c1`, for which the pIC50 in assay [1] was less than 3.70; in assay [2] it was 4.28; in [3] it was 4.13; in assay [4], 4.07.
The matching figures for `O=C(On1nnc2ccccc21)c1ccc[nH]1`: less than 3.70, less than 3.70, 4.37 and less than 3.70.
With `O=C(On1nnc2ccccc21)c1c[nH]c2ccccc12`, the negative logarithm of the IC50 (pIC50) in assay [1] was less than 3.70; in assay [2], less than 3.70; in [3] it was 4.84; in [4], less than 3.70; in [5] it was 4.66; in [6] it was 4.13. In assay [7], this molecule showed a negative-log IC50 (pIC50) of 4.09. Further, the Ratio IC50 in the assay filed under Homo sapiens [8], in the assay listed under Homo sapiens [9] and in the assay listed under Homo sapiens [10] was 10 in each case. The inhibition entry in assay [11] and in assay [12] was “Active” in each case.

These data come from ChEMBL document CHEMBL4616628, “Unexpected small molecules as novel SIRT2 suicide inhibitors” (Bioorg Med Chem, 2020).
